Measurements: US9247759B2, “Identification of human T2R receptors that respond to bitter compounds that elicit the bitter taste in compositions, and the use thereof in assays to identify compounds that inhibit (block) bitter taste in compositions and use thereof” (SENOMYX, INC., priority 2007, dated 2016)
pIC50: −log10 of the molar value. Read-outs that look alike come from different tables or passages of the source.

Tests used:
[1] = molecular target: hT2R7 (Homo sapiens (Human), UniProt Q9NYW3); experiment: hT2R panel inhibition, transient HEK293 G16g44, agonist Chloroquine pH6.5 10 mM; type: cell-based; conditions: HEK293, compound at 25 μM
Sequence of hT2R7 (Q9NYW3 whole entry): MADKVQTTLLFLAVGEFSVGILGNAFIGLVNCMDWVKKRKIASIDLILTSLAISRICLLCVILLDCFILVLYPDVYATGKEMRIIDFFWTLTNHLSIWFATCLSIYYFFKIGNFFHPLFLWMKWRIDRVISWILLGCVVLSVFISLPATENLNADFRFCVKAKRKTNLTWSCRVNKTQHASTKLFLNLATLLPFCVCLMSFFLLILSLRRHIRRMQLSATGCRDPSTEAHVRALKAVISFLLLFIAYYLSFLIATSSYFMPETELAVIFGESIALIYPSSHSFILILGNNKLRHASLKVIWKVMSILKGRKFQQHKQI
Outline: (§1)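 Here, inhibition reflects how much the test compound lowers activation of a transiently expressed human bitter receptor stimulated at EC80. Twenty-two such receptors were tested separately.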

[2] = molecular target: hT2R10 (Homo sapiens (Human), UniProt Q9NYW0); experiment: hT2R panel inhibition, transient HEK293 G16g44, agonist Strychnine 50 μM; type: cell-based
Sequence of hT2R10 (Q9NYW0 whole entry): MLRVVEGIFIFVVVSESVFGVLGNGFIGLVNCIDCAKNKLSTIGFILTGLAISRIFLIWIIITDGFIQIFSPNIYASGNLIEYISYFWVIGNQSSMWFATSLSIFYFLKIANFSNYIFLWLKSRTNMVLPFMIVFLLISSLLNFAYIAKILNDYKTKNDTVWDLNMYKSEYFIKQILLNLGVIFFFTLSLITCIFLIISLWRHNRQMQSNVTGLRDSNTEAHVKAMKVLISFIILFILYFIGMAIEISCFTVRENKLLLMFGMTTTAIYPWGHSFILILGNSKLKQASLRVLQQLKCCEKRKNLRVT

[3] = molecular target: hT2R75 (Homo sapiens (Human), UniProt P59540); experiment: hT2R panel inhibition, transient HEK293 G16g44, agonist Strychnine 1 μM; type: cell-based; conditions: HEK293, read-out: screening result against bitter receptor 75, compound at 25 μM; receptor activated to EC80 with the corresponding agonist
Sequence of hT2R75 (P59540 whole entry): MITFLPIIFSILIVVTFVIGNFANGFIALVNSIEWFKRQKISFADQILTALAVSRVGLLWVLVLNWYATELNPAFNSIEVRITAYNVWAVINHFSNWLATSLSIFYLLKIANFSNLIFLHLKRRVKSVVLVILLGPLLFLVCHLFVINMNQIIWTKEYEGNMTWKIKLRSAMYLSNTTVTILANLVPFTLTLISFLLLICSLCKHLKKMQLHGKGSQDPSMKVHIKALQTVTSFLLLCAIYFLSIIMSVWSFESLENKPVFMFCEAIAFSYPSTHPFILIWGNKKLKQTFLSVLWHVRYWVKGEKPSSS

[4] = molecular target: hT2R16 (Homo sapiens (Human), UniProt Q9NYV7); experiment: hT2R panel inhibition, transient HEK293 G16g44, agonist Salicin 1 mM; type: cell-based; conditions: HEK293, compound at 25 μM
Sequence of hT2R16 (Q9NYV7 whole entry): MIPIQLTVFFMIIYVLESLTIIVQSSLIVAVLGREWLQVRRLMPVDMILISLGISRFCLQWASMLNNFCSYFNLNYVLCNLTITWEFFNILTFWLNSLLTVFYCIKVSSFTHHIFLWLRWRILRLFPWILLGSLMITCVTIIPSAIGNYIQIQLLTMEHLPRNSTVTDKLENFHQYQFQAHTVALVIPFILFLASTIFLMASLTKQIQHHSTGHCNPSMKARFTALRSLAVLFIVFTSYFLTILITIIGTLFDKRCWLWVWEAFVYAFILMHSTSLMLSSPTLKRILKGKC
Outline: as §1

[5] = test system: hT2R65; experiment: hT2R panel inhibition, transient HEK293 G16g44, agonist Oleuropein 1 mM; type: cell-based, human; conditions: compound at 25 μM
Outline: as §1

[6] = molecular target: hT2R61 (Homo sapiens (Human), UniProt P59537); experiment: hT2R panel inhibition, transient HEK293 G16g44, agonist Aristolochic Acid 25 nM; type: cell-based; conditions: HEK293, compound at 25 μM
Sequence of hT2R61 (P59537 whole entry): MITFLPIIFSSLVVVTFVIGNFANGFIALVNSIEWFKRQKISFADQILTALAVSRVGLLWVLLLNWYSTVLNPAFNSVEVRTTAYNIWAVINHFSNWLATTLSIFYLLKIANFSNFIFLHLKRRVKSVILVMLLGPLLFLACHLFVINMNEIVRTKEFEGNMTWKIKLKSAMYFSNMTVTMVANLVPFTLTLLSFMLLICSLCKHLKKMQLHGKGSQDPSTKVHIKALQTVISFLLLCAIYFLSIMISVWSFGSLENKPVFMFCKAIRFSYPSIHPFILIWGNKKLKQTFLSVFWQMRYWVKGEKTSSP
Outline: as §1

[7] = molecular target: hT2R64 (Homo sapiens (Human), UniProt P59538); experiment: hT2R panel inhibition, transient HEK293 G16g44, agonist Aristolochic Acid 1 μM; type: cell-based; conditions: HEK293, compound at 25 μM
Sequence of hT2R64 (P59538 whole entry): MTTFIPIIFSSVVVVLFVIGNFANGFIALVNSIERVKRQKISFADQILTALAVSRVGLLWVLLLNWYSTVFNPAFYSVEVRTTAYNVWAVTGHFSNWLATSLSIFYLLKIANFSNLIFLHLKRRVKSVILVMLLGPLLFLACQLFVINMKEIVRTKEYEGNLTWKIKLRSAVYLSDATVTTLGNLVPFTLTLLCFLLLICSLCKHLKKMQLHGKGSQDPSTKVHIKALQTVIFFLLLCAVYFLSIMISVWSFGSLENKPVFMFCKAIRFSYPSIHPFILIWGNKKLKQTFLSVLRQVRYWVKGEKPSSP
Outline: as §1

[8] = molecular target: T1, hT2R14 (Homo sapiens (Human), UniProt Q9NYV8); experiment: hT2R panel inhibition, transient HEK293 G16g44, agonist Aristolochic Acid 2 μM; type: cell-based; conditions: HEK293, compound at 25 μM
T1 sequence (Q9NYV8 whole entry): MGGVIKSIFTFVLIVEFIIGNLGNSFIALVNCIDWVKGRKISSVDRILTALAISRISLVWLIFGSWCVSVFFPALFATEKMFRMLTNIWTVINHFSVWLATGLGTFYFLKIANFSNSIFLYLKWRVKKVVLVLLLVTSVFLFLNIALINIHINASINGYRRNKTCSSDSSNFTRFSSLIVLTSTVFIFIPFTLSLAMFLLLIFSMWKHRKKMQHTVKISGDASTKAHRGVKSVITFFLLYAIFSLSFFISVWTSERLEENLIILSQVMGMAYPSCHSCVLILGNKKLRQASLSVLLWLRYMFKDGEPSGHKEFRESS
Outline: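 Each hT2R was transiently transfected into HEK293 cells stably expressing G16g44 and assayed functionally for inhibition of agonist response. Agonists were applied at EC80: andrographolide at 0.5 mM for hT2R8 and aristolochic acid at 2 μM for hT2R14.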

[9] = molecular target: hT2R5 (Homo sapiens (Human), UniProt Q9NYW4); experiment: hT2R panel inhibition, transient HEK293 G16g44, agonist Picoline 10 mM; type: cell-based; conditions: HEK293, compound at 25 μM; receptor activated to EC80 with the corresponding agonist; read-out: screening result against bitter receptor 5
Sequence of hT2R5 (Q9NYW4 whole entry): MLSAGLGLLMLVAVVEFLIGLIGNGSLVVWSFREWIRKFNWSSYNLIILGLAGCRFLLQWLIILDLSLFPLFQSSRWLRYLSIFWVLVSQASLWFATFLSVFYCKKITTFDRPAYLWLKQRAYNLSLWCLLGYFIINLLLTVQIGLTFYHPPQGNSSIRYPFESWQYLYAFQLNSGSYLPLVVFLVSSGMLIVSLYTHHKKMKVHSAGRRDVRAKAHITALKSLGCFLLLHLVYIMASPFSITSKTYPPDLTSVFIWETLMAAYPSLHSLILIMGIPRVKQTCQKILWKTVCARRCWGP
Outline: as §1

[10] = molecular target: hT2R3 (Homo sapiens (Human), UniProt Q9NYW6); experiment: hT2R panel inhibition, transient HEK293 G16g44, agonist Chloroquine pH6.5 50 μM; type: cell-based; conditions: HEK293, compound at 25 μM
Sequence of hT2R3 (Q9NYW6 whole entry): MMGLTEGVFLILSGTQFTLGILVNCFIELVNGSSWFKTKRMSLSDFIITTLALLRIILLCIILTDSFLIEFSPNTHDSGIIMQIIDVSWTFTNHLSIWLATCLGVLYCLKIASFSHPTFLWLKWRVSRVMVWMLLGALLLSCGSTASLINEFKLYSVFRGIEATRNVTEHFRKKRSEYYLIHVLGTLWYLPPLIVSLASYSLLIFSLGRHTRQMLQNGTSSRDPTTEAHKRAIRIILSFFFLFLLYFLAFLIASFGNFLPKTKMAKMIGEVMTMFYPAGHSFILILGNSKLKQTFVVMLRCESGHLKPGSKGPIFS
Outline: as §1

[11] = molecular target: hT2R9 (Homo sapiens (Human), UniProt Q9NYW1); experiment: hT2R panel inhibition, transient HEK293 G16g44, agonist Ofloxacin 1 mM; type: cell-based; conditions: HEK293, compound at 25 μM
Sequence of hT2R9 (Q9NYW1 whole entry): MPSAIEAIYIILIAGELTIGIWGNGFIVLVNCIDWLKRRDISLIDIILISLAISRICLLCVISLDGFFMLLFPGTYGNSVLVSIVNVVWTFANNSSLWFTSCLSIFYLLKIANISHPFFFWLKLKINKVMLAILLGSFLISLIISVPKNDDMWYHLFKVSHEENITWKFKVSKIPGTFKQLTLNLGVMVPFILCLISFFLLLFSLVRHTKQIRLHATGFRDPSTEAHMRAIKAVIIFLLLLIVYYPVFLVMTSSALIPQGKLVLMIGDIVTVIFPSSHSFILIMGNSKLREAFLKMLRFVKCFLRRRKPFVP
Outline: as §1

[12] = molecular target: hT2R13 (Homo sapiens (Human), UniProt Q9NYV9); experiment: hT2R panel inhibition, transient HEK293 G16g44, agonist Oxyphenonium 1 mM; type: cell-based; conditions: HEK293, compound at 25 μM
Sequence of hT2R13 (Q9NYV9 whole entry): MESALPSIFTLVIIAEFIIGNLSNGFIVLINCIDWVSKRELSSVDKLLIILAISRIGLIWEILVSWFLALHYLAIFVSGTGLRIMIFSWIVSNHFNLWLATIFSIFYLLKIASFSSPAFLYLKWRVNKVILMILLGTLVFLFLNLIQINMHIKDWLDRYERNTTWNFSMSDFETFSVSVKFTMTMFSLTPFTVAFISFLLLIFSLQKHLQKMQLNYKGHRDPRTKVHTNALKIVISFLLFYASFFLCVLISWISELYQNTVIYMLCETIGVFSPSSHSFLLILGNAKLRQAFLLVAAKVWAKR
Procedure: Specifically, in order to evaluate the inhibitory selectivity of the Compound C compound, this compound was tested against 22 human T2Rs which were deorphaned by Senomyx. These receptors and the bitter ligands that activate these human T2Rs are reported in earlier patent applications which are incorporated by reference herein. These 22 human T2Rs are hT2R1, 3, 4, 5, 7, 8, 9, 10, 13, 14, 16, 44, 51, 54, 55, 61, 63, 64, 65, 67, 71 and 75. The amino acid and nucleic acid sequences of all of these T2Rs may be found in these earlier patent applications. These human T2Rs were each individually transiently transfected into HEK293 cells that stably express the promiscuous G protein G16g44 and functional assays were effected using these receptors as disclosed in these same patent applications. […] The ligands were used at EC80 concentration levels. The list of bitter ligands utilized and the tested ligand concentrations are contained in Table 5 of this example.
Relating to the foregoing, FIG. 5 contains experimental results wherein Compound C was tested with different agonist compounds. The inhibition activity is represented by the reduction of receptor activity in the presence of Compound C. […] These 13 hT2Rs are hT2R3, 7, 10, 14, 16, 44, 51, 55, 61, 63, 64, 65, and 71.

[13] = molecular target: hT2R71 (Homo sapiens (Human), UniProt P59536); experiment: hT2R panel inhibition, transient HEK293 G16g44, agonist Picric Acid 10 μM; type: cell-based; conditions: HEK293, compound at 25 μM
Sequence of hT2R71 (P59536 whole entry): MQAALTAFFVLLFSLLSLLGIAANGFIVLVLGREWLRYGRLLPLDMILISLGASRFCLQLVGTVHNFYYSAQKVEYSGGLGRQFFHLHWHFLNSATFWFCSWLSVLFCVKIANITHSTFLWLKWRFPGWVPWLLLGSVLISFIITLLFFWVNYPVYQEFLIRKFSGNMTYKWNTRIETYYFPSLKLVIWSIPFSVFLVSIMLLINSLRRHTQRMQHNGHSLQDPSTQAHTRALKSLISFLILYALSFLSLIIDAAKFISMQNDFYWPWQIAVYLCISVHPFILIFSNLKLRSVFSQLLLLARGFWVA
Outline: as §1

[14] = test system: hT2R44; experiment: hT2R panel inhibition, transient HEK293 G16g44, agonist Denatonium 0.5 μM; type: cell-based, human; conditions: compound at 25 μM; for screening result against bitter receptor 44: receptor activated to EC80 with the corresponding agonist; for inhibition of bitter receptor 44: receptor activated to EC80 with agonist
Outline: as §1

[15] = test system: hT2R63; experiment: hT2R panel inhibition, transient HEK293 G16g44, agonist Caffeine 1 mM or Andrographolide 100 μM; type: cell-based, human; conditions: compound at 25 μM; for screening result against bitter receptor 63: receptor activated to EC80 with the corresponding agonist; for inhibition of bitter receptor 63: receptor activated to EC80 with agonist
Outline: as §1

[16] = molecular target: T1, hT2R14; experiment: hT2R14 antagonist high-throughput FLIPR assay, stable cell line with G16g44, agonist aristolochic acid; type: cell-based; conditions: read-out: IC50 on hT2R14 bitter receptor
Outline: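 HEK293 cells stably expressing hT2R14 with chimeric G16g44 were stimulated with aristolochic acid (3 μM), giving 70-80% of maximal receptor activity. Test compounds were added together with the agonist, and antagonism was read as fluorescent calcium signal on FLIPR.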

[17] = test system: hT2R55; experiment: hT2R panel inhibition, transient HEK293 G16g44, agonist Cinchonine 150 μM; type: cell-based, human; conditions: compound at 25 μM; for screening result against bitter receptor 55: receptor activated to EC80 with the corresponding agonist
Outline: as §1

[18] = molecular target: hT2R51 (Homo sapiens (Human), UniProt P59533); experiment: hT2R panel inhibition, transient HEK293 G16g44, agonist Prop 2.5 μM; type: cell-based; conditions: HEK293, compound at 25 μM
Sequence of hT2R51 (P59533 whole entry): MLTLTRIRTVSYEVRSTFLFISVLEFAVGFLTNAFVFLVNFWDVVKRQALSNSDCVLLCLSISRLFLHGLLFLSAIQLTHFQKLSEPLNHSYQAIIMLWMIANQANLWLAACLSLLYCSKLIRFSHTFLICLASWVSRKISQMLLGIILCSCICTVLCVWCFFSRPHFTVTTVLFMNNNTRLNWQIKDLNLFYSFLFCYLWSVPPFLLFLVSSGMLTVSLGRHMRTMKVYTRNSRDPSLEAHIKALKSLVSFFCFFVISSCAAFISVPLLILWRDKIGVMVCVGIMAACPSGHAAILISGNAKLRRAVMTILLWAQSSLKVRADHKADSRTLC
Outline: as §1

[19] = test system: hT2R54; experiment: hT2R panel inhibition, transient HEK293 G16g44, agonist Ranitidine 5 mM; type: cell-based, human; conditions: compound at 25 μM; receptor activated to EC80 with agonist
Outline: as §1

[20] = test system: hT2R67; experiment: hT2R panel inhibition, transient HEK293 G16g44, agonist Andrographolide 5 μM; type: cell-based, human; conditions: compound at 25 μM; receptor activated to EC80 with agonist
Outline: as §1

[21] = molecular target: hT2R4 (Homo sapiens (Human), UniProt Q9NYW5); experiment: hT2R panel inhibition, transient HEK293 G16g44, agonist Chloroquine pH6.5 5 mM; type: cell-based; conditions: HEK293, compound at 25 μM; receptor activated to EC80 with agonist; read-out: inhibition of bitter receptor 4
Sequence of hT2R4 (Q9NYW5 whole entry): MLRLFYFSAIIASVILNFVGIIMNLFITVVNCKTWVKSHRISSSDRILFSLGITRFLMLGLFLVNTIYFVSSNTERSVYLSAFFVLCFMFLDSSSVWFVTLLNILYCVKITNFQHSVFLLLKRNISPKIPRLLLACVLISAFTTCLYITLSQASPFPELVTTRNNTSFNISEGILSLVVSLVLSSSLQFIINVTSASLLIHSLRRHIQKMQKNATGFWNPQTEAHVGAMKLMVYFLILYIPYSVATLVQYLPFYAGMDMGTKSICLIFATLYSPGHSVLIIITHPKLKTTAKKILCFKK
Outline: as §1

[22] = receptor activated to EC80 with the corresponding agonist, read-out: screening result against bitter receptor 7
[23] = HEK293, read-out: screening result against bitter receptor 10, compound at 25 μM, receptor activated to EC80 with the corresponding agonist
[24] = receptor activated to EC80 with the corresponding agonist, read-out: screening result against bitter receptor 16
[25] = receptor activated to EC80 with the corresponding agonist, read-out: screening result against bitter receptor 64
[26] = receptor activated to EC80 with the corresponding agonist, read-out: screening result against bitter receptor 14
[27] = receptor activated to EC80 with the corresponding agonist, read-out: screening result against bitter receptor 3
[28] = receptor activated to EC80 with the corresponding agonist, read-out: screening result against bitter receptor 9
[29] = receptor activated to EC80 with the corresponding agonist, read-out: screening result against bitter receptor 13
[30] = receptor activated to EC80 with the corresponding agonist, read-out: screening result against bitter receptor 71
[31] = receptor activated to EC80 with agonist, read-out: inhibition of bitter receptor 7
[32] = receptor activated to EC80 with agonist
[33] = receptor activated to EC80 with agonist, read-out: inhibition of bitter receptor 61
[34] = receptor activated to EC80 with agonist, read-out: inhibition of bitter receptor 14
[35] = receptor activated to EC80 with agonist, read-out: inhibition of bitter receptor 13

Row | Compound | inhibition at 25 µM [1, 22] [%] | inhibition at 25 µM [2, 23] [%] | inhibition at 25 µM [3] [%] | inhibition at 25 µM [4, 24] [%] | inhibition at 25 µM [7, 25] [%] | inhibition at 25 µM [8, 26] [%] | inhibition at 25 µM [9] [%] | inhibition at 25 µM [10, 27] [%] | inhibition at 25 µM [11, 28] [%] | inhibition at 25 µM [12, 29] [%] | inhibition at 25 µM [13, 30] [%] | screening result against bitter receptor 44 [14] | screening result against bitter receptor 63 [15] | pIC50 [16] | screening result against bitter receptor 55 [17] | inhibition at 25 µM [1, 31] [%] | inhibition at 25 µM [6, 33] [%] | inhibition at 25 µM [8, 34] [%] | inhibition at 25 µM [12, 35] [%] | inhibition of bitter receptor 44 [14] | also measured
1 | Cc1ccc(S(=O)(=O)N(Cc2ccc(F)cc2)CC2CCC(C(=O)O)CC2)cc1 (stereo not shown) [Example 5-20, 4-((N-(4-fluorobenzyl)-4-methylphenylsulfonamido)methyl)-cyclohexanecarboxylic acid] | 20 to 40 | 40 to 60 | 40 to 60 | 40 to 60 | 60 to 80 | > 80 | 20 to 40 | > 80 | 20 to 40 | 20 to 40 | 40 to 60 | +++ (60% to 80% inhibition = +++) | ++ (40% to 60% inhibition = ++) | 7.08 | ++++ (80% or greater inhibition = ++++) | – | – | – | – | – | screening result against bitter receptor 65 ([5]; receptor activated to EC80 with the corresponding agonist): + (20% to 40% inhibition = +); inhibition at 25 µM ([6]; receptor activated to EC80 with the corresponding agonist, read-out: screening result against bitter receptor 61): > 80%
2 | COc1ccc(CN(Cc2ccc(OC)cc2)S(=O)(=O)c2ccc(C(=O)O)cc2)cc1 [Example 5-30, 4-(N,N-bis(4-methoxybenzyl)sulfamoyl)benzoic acid] | 20 to 40 | 40 to 60 | 20 to 40 | 20 to 40 | > 80 | > 80 | 20 to 40 | 40 to 60 | 20 to 40 | 20 to 40 | 60 to 80 | +++ (60% to 80% inhibition = +++) | ++++ (80% or greater inhibition = ++++) | 5.38 | ++++ (80% or greater inhibition = ++++) | – | – | – | – | – | inhibition at 25 µM ([18]; receptor activated to EC80 with the corresponding agonist, read-out: screening result against bitter receptor 51): 40 to 60%
3 | CCCOc1ccc(CN(Cc2ccccc2)S(=O)(=O)c2ccc(C(=O)O)cc2)cc1 [Example 5-109, 4-(N-benzyl-N-(4-propoxybenzyl)sulfamoyl)benzoic acid] | – | – | – | – | – | – | – | – | – | – | – | – | – | – | – | 20 to 40 | 60 to 80 | > 80 | 20 to 40 | ++ (40% to 60% inhibition = ++) | inhibition at 25 µM ([2]; HEK293, read-out: inhibition of bitter receptor 10, compound at 25 μM, receptor activated to EC80 with agonist): 40 to 60%; inhibition at 25 µM ([4]; receptor activated to EC80 with agonist, read-out: inhibition of bitter receptor 16): 20 to 40%; inhibition of bitter receptor 65 [5, 32]: +++ (60% to 80% inhibition = +++); inhibition of bitter receptor 54 [19]: + (20% to 40% inhibition = +); inhibition at 25 µM ([7]; receptor activated to EC80 with agonist, read-out: inhibition of bitter receptor 64): > 80%; inhibition at 25 µM ([18]; receptor activated to EC80 with agonist, read-out: inhibition of bitter receptor 51): 40 to 60%; inhibition at 25 µM ([10]; receptor activated to EC80 with agonist, read-out: inhibition of bitter receptor 3): 40 to 60%; inhibition at 25 µM ([13]; receptor activated to EC80 with agonist, read-out: inhibition of bitter receptor 71): 60 to 80%; inhibition of bitter receptor 67 [20]: + (20% to 40% inhibition = +); inhibition of bitter receptor 63 [15]: ++ (40% to 60% inhibition = ++); inhibition at 25 µM [21]: 40 to 60%; inhibition of bitter receptor 55 [17, 32]: ++++ (80% or greater inhibition = ++++)
4 | Cn1c(=O)c(=O)n(C)c2cc(S(=O)(=O)Nc3ccc(Cc4ccccn4)cc3)ccc21 [Example 6-4, 1,4-dimethyl-2,3-dioxo-N-(4-(pyridin-2-ylmethyl)phenyl)-1,2,3,4-tetrahydroquinoxaline-6-sulfonamide] | – | – | – | – | – | – | – | – | – | – | – | – | – | 5.21 | – | 20 to 40 | 20 to 40 | > 80 | > 80 | + (20% to 40% inhibition = +) | inhibition at 25 µM ([11]; receptor activated to EC80 with agonist, read-out: inhibition of bitter receptor 9): 20 to 40%; inhibition of bitter receptor 63 [15]: + (20% to 40% inhibition = +)
